From publication PMC9268243, “Metabolic Behaviors of Aconitum Alkaloids in Different Concentrations of Aconiti Lateralis Radix Praeparata and Effects of Aconitine in Healthy Human and Long QT Syndrome Cardiomyocytes” (Molecules, 2022)
Read-outs that look alike come from different tables or passages of the source.

Legend:
[1] = molecular target: T1, L-type calcium current (ICa,L) in LQTS hiPSC-CMs (Homo sapiens, UniProt Q13936); assay: Patch-clamp L-type calcium current, LQTS hiPSC-CMs; format: cell-based
T1 construct: endogenous in cells; host or cells: LQTS patient-derived hiPSC cardiomyocytes
Excerpt: (§1) Standard patch-clamp techniques were used to record action potentials, and L-type calcium currents. Composition of intracellular fluid and extracellular fluid were shown in Table 7 and Table 8, respectively. The signal was amplified using an HEKA EPC-10 patch-clamp amplifier (HEKA, Electronics, Ludwigshafen, Germany) and low-pass filtered at 5 kHz. Patch pipettes were fabricated from glass capillaries using a Sutter P-97 microelectrode puller (Novato, CA, USA) and the tips were heat polished with a microforge (NARISHIGE MF-900) to gain a resistance of 2–5 MΩ. Data acquisition was achieved using HEKA Patchmaster (V2x73.2). Data analysis and fit were performed using Clamfit and Graphpad Prism 6.0. The experiment was conducted at 37 °C. One cell can test one or more drugs, or multiple concentrations of the same drug but needs to be rinsed with extracellular fluid between each test. Nifedipine (Sigma) was used as a positive control to ensure cell quality. External solution containing 0.1% DMSO was applied as vehicle to establish the baseline. Recording was done at a temperature-controlled room of 35–37 degrees Celsius.
(§2) Isoproterenol, nifedipine, and AC were purchased from Sigma-Aldrich, which were resolved in DMSO (Sigma-Aldrich, D2650). Drug compounds final concentration were AC (0.05, 0.5,5 μM), nifedipine (1 μM), isoproterenol (3 μM), respectively. Dilutions were prepared within 60 min of treatment. All the compound solutions were subjected to regular 10 min ultrasound and oscillations to ensure that compounds were completely dissolved. Equal amounts of DMSO (0.1%) were used as the vehicle controls.

normal hiPSC-CMs = assay: Impedance beating recordings (cell index, beat rate, amplitude), normal hiPSC-CMs; format: cell-based, human
Experimental: HiPSCs derived from healthy controls (Cat: NC20010002; Lot.HJ210577NC22), or patients (Cat. NC20300002; Lot. CP210578NC04) diagnosed with LQT syndrome was maintained in HELP4004 (HELP, Nanjing, China) medium on Matrigel-coated (BD Bio science, San Jose, CA, USA) plates at 37 °C; with 5% CO2 (v/v).
The cardiomyocytes were seeded on Nanion CardioExcyte 96 Sensor Plates (NSP-96, Nanion Technologies, Munich, Germany) after 0.1% gelatin coating for 1 h. The initial volume was 200 μL per well and contained approximately […]. After seeding, the NSP-96 and CardioExcyte 96 were returned to the incubator. All cells were replaced with fresh medium 200 μL per well every 48 h and tested after 168 h. Cellular index, beat rate, base impedance and beat amplitude were monitored in this experiment.
as §2

LQT syndrome hiPSC-CMs = assay: Ca2+ imaging of calcium transients, LQT syndrome hiPSC-CMs; format: cell-based, human; details: cardiomyocytes of LQTS, 5 μM
Experimental: Dissociated day 30–33 post-differentiation hiPSC-CMs (healthy and LQT specific patient) were reseeded Matrigel-coated plate in HELP4004 (HELP) and were treated with 5 μM Fluo-3 AM and 0.02% Pluronic (Life Technologies) in DMEM/F12 (Gibco) for 60 min at 37 °C. Cells were washed with DMEM/F12 without fluorochrome solution afterwards for 30 min, replaced the solution with Tyrode’s solution. Ca^2+ imaging was conducted using Olympus IX71 confocal microscope (Olympus IX71, Tokyo, Japan) and analyzed using Olympus imaging software. Ca^2+ spontaneous transients were obtained using a single cell line scan mode at 37 °C.
as §2

LQTS hiPSC-CMs = assay: Whole-cell current-clamp action potential recording, LQTS hiPSC-CMs; format: cell-based, human; details: LQTS hiPSC-CMs, 0.05, 0.5 and 5 μM, 1 Hz stimulation
Excerpt: as §1
Isoproterenol, nifedipine, and AC were purchased from Sigma-Aldrich, which were resolved in DMSO (Sigma-Aldrich, D2650). Drug compounds final concentration were AC (0.05, 0.5,5 μM), nifedipine (1 μM), isoproterenol (3 μM), respectively. […]

CYP3A4 = details: in vivo; cited from earlier work

T1 sequence (Q13936 whole entry): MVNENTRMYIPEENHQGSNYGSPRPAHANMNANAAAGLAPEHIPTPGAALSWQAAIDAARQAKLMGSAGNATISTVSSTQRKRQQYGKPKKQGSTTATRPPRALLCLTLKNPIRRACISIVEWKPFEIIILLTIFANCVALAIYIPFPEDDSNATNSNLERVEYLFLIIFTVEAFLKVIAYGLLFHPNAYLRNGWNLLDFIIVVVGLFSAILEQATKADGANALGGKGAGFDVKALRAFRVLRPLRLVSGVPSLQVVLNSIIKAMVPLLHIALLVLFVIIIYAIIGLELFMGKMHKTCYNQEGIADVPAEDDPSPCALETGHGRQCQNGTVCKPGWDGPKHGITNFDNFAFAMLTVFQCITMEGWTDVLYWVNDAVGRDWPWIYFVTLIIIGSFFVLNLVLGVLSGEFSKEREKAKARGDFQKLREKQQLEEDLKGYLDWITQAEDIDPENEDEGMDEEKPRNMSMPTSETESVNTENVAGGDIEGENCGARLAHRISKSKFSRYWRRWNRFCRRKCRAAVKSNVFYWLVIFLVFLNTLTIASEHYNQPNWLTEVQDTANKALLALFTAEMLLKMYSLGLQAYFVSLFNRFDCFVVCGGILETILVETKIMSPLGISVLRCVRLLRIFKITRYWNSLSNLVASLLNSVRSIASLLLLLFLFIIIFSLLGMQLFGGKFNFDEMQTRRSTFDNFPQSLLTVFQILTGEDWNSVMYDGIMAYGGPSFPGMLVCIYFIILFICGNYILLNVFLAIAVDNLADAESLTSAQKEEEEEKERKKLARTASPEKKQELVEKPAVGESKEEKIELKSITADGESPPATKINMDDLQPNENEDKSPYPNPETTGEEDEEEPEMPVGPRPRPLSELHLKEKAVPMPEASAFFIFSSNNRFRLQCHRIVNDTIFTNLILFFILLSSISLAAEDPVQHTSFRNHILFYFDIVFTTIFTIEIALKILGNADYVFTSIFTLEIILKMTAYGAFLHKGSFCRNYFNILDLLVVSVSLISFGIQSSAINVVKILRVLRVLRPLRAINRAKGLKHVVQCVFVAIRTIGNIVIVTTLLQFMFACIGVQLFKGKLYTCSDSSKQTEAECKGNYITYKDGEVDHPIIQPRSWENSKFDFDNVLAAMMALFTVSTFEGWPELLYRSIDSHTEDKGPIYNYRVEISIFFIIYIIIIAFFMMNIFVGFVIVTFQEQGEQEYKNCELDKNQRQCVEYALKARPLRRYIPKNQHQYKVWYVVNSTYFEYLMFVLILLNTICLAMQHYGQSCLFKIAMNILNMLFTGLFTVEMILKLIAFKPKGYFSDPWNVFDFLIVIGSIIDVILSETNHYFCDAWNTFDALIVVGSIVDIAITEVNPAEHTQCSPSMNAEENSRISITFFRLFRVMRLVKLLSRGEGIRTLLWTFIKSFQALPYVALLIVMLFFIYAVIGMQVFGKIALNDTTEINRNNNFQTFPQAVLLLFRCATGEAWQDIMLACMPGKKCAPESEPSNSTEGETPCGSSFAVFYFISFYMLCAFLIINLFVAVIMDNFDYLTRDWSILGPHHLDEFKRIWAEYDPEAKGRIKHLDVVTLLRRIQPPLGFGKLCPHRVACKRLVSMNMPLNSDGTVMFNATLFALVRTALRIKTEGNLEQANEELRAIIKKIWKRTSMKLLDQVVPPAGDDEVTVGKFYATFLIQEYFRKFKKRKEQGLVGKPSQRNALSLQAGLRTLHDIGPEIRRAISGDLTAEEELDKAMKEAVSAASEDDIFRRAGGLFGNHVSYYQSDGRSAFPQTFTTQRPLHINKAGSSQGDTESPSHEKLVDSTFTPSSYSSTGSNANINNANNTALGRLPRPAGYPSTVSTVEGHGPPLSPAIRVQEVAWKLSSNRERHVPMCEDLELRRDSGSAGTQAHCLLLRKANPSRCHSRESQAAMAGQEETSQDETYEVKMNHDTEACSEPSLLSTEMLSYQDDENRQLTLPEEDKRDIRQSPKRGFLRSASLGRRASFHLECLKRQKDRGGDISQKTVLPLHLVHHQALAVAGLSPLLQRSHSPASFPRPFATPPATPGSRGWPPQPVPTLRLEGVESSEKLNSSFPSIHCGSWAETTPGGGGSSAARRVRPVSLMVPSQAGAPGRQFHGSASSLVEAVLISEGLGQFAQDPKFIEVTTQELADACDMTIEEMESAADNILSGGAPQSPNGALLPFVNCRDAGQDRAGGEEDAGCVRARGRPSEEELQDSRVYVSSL
T1 sequence (Q08289 whole entry partner): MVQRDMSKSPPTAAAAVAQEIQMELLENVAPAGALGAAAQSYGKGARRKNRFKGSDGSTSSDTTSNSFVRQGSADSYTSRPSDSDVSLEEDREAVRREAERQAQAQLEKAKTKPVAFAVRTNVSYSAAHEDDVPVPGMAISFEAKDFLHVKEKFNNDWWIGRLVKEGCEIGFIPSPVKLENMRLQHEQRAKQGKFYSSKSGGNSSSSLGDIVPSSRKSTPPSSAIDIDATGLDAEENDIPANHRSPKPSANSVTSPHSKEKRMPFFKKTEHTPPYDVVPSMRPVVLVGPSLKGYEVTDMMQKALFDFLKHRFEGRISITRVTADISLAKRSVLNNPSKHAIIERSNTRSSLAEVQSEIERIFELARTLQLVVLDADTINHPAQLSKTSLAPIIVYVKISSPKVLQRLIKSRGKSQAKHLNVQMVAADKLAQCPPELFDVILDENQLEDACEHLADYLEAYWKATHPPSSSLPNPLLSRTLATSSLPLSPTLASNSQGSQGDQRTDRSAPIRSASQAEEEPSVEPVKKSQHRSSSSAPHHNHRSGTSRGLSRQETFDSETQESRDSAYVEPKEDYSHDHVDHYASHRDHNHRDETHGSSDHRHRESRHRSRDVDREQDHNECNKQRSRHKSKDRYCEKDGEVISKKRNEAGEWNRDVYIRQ
T1 sequence (P54289 25-956 partner limits assumed): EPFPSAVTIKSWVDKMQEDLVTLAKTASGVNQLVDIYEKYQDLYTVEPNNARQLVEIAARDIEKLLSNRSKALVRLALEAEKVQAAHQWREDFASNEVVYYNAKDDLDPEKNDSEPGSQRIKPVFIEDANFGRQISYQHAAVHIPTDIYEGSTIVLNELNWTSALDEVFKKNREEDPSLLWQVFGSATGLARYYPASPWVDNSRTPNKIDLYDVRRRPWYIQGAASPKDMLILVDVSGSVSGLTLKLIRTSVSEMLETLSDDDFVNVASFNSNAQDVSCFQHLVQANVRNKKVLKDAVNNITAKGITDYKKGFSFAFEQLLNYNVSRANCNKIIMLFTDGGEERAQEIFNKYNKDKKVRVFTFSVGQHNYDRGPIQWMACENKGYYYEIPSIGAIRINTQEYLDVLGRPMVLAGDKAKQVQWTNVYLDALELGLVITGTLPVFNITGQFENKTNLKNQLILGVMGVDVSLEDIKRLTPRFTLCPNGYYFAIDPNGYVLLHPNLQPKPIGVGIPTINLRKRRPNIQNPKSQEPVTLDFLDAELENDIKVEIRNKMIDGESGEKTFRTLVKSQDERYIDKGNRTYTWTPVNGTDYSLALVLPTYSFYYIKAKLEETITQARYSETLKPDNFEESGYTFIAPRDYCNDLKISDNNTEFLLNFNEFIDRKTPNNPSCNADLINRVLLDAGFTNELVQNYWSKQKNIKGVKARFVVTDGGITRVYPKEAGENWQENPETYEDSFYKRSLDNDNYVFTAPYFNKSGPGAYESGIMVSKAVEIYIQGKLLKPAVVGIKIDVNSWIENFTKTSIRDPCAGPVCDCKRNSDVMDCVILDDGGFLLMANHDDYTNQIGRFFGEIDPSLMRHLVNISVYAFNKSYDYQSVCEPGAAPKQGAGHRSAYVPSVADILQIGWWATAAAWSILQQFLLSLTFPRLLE
T1 sequence (P54289 957-1103 partner limits assumed): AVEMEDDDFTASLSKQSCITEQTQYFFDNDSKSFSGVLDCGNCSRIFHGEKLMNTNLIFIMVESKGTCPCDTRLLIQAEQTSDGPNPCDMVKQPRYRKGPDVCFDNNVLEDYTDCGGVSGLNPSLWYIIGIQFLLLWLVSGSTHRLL

SMILES: CCN1C[C@]2(COC)[C@H](O)C[C@H](OC)[C@@]34[C@@H]5C[C@@]6(O)[C@H](OC(=O)c7ccccc7)[C@@H]5[C@@](OC(C)=O)([C@@H]([C@H](OC)[C@H]23)[C@@H]14)[C@@H](O)[C@@H]6OC [AC, aconitine]
- peak value of L-type calcium current ([1]; LQT group, 0.05–5 μM): significantly decreased
- IC50 ([1]; LQT hiPSC-CMs, tested 0.05–5 μM, no concentration dependence, read-out: IC50, inhibition of L-type calcium current): > 5 µM
- IC50 ([1]; LQTS hiPSC-CMs, estimated beyond tested range 0.05–5 μM, read-out: IC50 (eIC50) on ICa,L): 27.2 µM
- amplitude (normal hiPSC-CMs; normal hiPSC-CMs): concentration-dependently decreased
- cell index (normal hiPSC-CMs; normal hiPSC-CMs): no significant effect
- cell beat rate (normal hiPSC-CMs; normal hiPSC-CMs, 0.5 μM): faster after 12 h
- cell contractility (normal hiPSC-CMs; normal hiPSC-CMs, 0.5 μM): decreased cell contractility
- cell frequency (normal hiPSC-CMs; normal hiPSC-CMs, 0.5 μM): increased cell frequency
- cell contractility (normal hiPSC-CMs; normal hiPSC-CMs, 5 μM, very weak within 6 h after treatment): significantly reduced
- cardiomyocyte death (normal hiPSC-CMs; normal hiPSC-CMs, 0.05, 0.5 and 5 μM, 48 h observation period): None of the three concentrations (0.05, 0.5, and 5 μM) AC caused cardiomyocyte death
- contraction force (normal hiPSC-CMs; normal hiPSC-CMs, versus control group, concentration not given): slightly lower
- frequency of calcium transient (LQT syndrome hiPSC-CMs): significantly increase
- APD50 (LQTS hiPSC-CMs): concentration-dependently shortened
- main CYP 450 subtype for alkaloid metabolism (CYP3A4): CYP3A4
